{"source": "patent US8110555B2", "about": "“7-hydroxy chromones as potent antioxidants” (Unigen, Inc., priority 2002, dated 2012)", "key": {"[1]": {"test_system": "tyrosinase", "conditions": "cited from earlier work; for type of tyrosinase inhibition (Lineweaver Burk diagram): Yagi et al. (1987)"}, "[2]": {"test_system": "spontaneous lipid peroxidation reaction", "assay": "Lipid Peroxidation Inhibition Capacity (LPIC) assay, MDA by thiobarbituric acid reaction", "type": "biochemical", "conditions": "for inhibition of lipid peroxidation: concentration 5 mg/mL in phosphate-saline buffer", "text": "The Lipid Peroxidation Inhibition Capacity (LPIC) assay is a method for measuring the ability of a sample to inhibit the initiation and propagation of a spontaneous lipid peroxidation reaction. Lipid peroxidation represents the major mechanism of lipid destruction occurring in an organism. This reaction is also an important source of reactive oxygen species. In part, lipid peroxidation is controlled in vivo by:\nLipid Peroxidation Inhibition Capacity (LPIC) is a measure of the anti-oxidative ability of a sample to inhibit the initiation and propagation of a spontaneous lipid peroxidation reaction. Malonyldialdehyde (MDA) is one of the major by-products of lipid peroxidation and is commonly used as a means of measuring the extent of lipid peroxidation. MDA concentrations were measured using the thiobarbituric acid reaction. Aloeresin A (purity 76.0%), vitamin C and cc-tocopherol were dissolved in a phosphate-saline buffer at four different concentrations (5 mg/mL, 10 mg/mL, 25 mg/mL and 50 mg/mL) and then tested directly using the experiment procedures described by Stocks et al. (1974) Clinical Sci. Mol. 47:215-222 and Yu and Lee, U.S. Pat. No. 5,939,395."}, "[3]": {"test_system": "oxygen radical damage of β-phycoerythrin (β-PE) indicator protein", "assay": "ORAC of a meta-berry fruit drink product with added aloeresin A", "type": "biochemical", "conditions": "aloeresin A at a concentration of 5%; FIG. 7", "method": "A fruit drink product obtained from Oasis Wellness Network was determined, using the methods described in Example 3, to have an ORAC value of 3,129/oz. Aloeresin A, containing 76.0% aloeresin A was added to 40 mL of the drink (lot #0612, exp. […] These samples were then tested for whole ORAC value relative to the product in the absence of aloeresin A. using the experiment procedures illustrated described by Cao et al. (1994) Free Radic. Biol. Med. 16:135-137 and Prior and Cao (1999) Proc. Soc. Exp. Biol. Med. 220:255-261)."}, "[4]": {"test_system": "oxygen radical damage of β-phycoerythrin (β-PE) indicator protein", "assay": "Fast and slow Oxygen Radical Absorption Capacity (ORAC)", "type": "biochemical", "conditions": "for slow antioxidant activity, comparison in words: slow ORAC (50% of β-phycoerythrin survives)", "text": "Ascorbic acid, free phenolic compounds and thiol compounds are fast acting antioxidants. The slow antioxidant activity is a measure of the net protection area under the quenching curve of β-phycoerythrin in the presence of an antioxidant, which inhibits free radical propagation to the extent that 50% of β-phycoerythrin survives. Flavonoids, carotenoids and polyphenols are slow acting antioxidants. Aloeresin A (purity 76.0%), Aloesin (95.2%), green tea extract and grape seed extract, respectively were dissolved in deionized water (5% (W/V) solution) and tested directly using the experiment procedures described by Cao et al. (1994) Free Radic. Biol. Med. 16:135-137 and Prior and Cao (1999) Proc. Soc. Exp. Biol. Med. 220:255-261."}, "[5]": {"test_system": "oxygen radical damage of β-phycoerythrin (β-PE) indicator protein", "assay": "Oxygen Radical Absorption Capacity (ORAC) assay, whole ORAC", "type": "biochemical", "conditions": "FIG. 4", "text": "The Oxygen Radical Absorption Capacity (ORAC) assay is a method for measuring total serum antioxidant activity. (Cao et al. (1993) Free Rad. Biol. Med. 14:303-311). It can be used to quantitatively measure the total antioxidant capacity, as well as, qualitatively measure the levels of fast versus slow acting antioxidants in a blood serum sample. The assay utilizes the free radical sensitive fluorescent indicator protein β-phycoerythrin (β-PE) to monitor the effectiveness of various serum antioxidants in protecting β-PE from becoming damaged by free radicals. Assay results are quantitated by allowing the reaction to reach completion and then integrating the area under the kinetic curve relative to a blank reaction containing no antioxidant. The area under the curve is proportional to the concentration of all the antioxidants present in the sample. (DeLang and Glazer (1989) Analyt. Biochem. 177:300-306).\nThe chromones, Aloesin and Aloeresin A, were tested for Oxygen Radical Absorption Capacity (ORAC) relative to green tea extract which contains more than 50% total catechins and more than 25% epigallocatechingallate (EGCG) and grape seed extract which contains more than 95% total phenols. The ORAC assay measures the time-dependent decrease in the fluorescence of β-phycoerythrin (β-PE) indicator protein, resulting from oxygen radical damage. This assay provides a quantitative measure of the total antioxidant capacity to protect the free radical sensitive β-phycoerythrin. Each reaction was calibrated using the known standard Trolox, a water soluble vitamin E analogue. The ORAC value refers to the net protection area under the quenching curve of β-phycoerythrin in the presence of an antioxidant. The results of the assay are reported on the basis of 1 ORAC unit equals 1 μM of Trolox. Aloeresin A (purity 76.0%), aloesin (95.2%), green tea extract and grape seed extract were dissolved in deionized water (5% solution W/V) and tested directly using the experimental procedures described in Cao et al. (1994) Free Radic. Biol. Med. 16:135-137 and Prior and Cao (1999) Proc. Soc. […]"}}}
{"smiles": "COc1cc(/C=C/C(=O)O[C@@H]2[C@@H](O)[C@H](O)[C@@H](CO)O[C@H]2c2c(O)cc(C)c3c(=O)cc(CC(C)=O)oc23)ccc1O", "note": "[2″-feruloylaloesin, 2″-O-feruloylaloesin, reference compound]", "values": [{"measurement": "type of tyrosinase inhibition (Lineweaver Burk diagram)", "setting": "[1]", "value": "non-competitive inhibitor"}]}
{"smiles": "Cc1c(C)c2c(c(C)c1O)CC[C@@](C)(CCC[C@H](C)CCC[C@H](C)CCCC(C)C)O2", "note": "[α-tocopherol, reference compound]", "values": [{"measurement": "inhibition of lipid peroxidation", "setting": "[2]", "value": "below 10%"}]}
{"smiles": "CC(=O)Cc1cc(=O)c2c(C)cc(O)c([C@@H]3O[C@H](CO)[C@@H](O)[C@H](O)[C@H]3OC(=O)/C=C/c3ccc(O)cc3)c2o1", "note": "[aloeresin A]", "values": [{"measurement": "increase of ORAC value of a multiple berry fruit drink", "setting": "[3]", "value": 31.3, "unit": "%"}, {"measurement": "fast antioxidant potency relative to the other three compositions", "setting": "[4]; fast ORAC (95% of β-phycoerythrin survives), 5% (W/V) solution, FIG. 5", "value": "four times more potent as a fast antioxidant"}, {"measurement": "slow antioxidant activity, comparison in words", "setting": "[4]; 5% (W/V) solution, FIG. 5", "value": "superior antioxidant relative to grape seed and green tea extracts"}, {"measurement": "whole ORAC value higher than grape seed extract", "setting": "[5]; 5% (W/V) solution, difference to grape seed extract", "value": 299}, {"measurement": "whole ORAC value higher than green tea extract", "setting": "[5]; 5% (W/V) solution, difference to green tea extract", "value": 33}, {"measurement": "inhibition of lipid peroxidation", "setting": "[2]", "value": 30.7, "unit": "%"}, {"measurement": "lipid peroxidation inhibition capacity (LPIC), comparison in words", "setting": "[2]; concentrations of 10 mg/mL to 50 mg/mL, vs α-tocopherol and vitamin C, FIG. 6", "value": "stronger antioxidant than either α-tocopherol or vitamin C"}]}
{"smiles": "CC(=O)Cc1cc(=O)c2c(C)cc(O)c([C@@H]3O[C@H](CO)[C@@H](O)[C@H](O)[C@H]3O)c2o1", "note": "[aloesin]", "values": [{"measurement": "more active than grape seed extract at 50% ORAC conditions", "setting": "[4]; 50% ORAC conditions, relative to grape seed extract", "value": "more than six times more active"}, {"measurement": "more active than green tea extract at 50% ORAC conditions", "setting": "[4]; 50% ORAC conditions, relative to green tea extract", "value": "over 70%"}, {"measurement": "slow antioxidant activity, comparison in words", "setting": "[4]; 5% (W/V) solution, FIG. 5", "value": "more potent as a slow acting antioxidant"}, {"measurement": "whole ORAC value, comparison in words", "setting": "[5]; 5% (W/V) solution in deionized water, vs aloeresin A, green tea and grape seed extracts", "value": "much higher whole ORAC value than aloeresin A and the standardized green tea and grape seed extracts"}, {"measurement": "type of tyrosinase inhibition (Lineweaver Burk diagram)", "setting": "[1]", "value": "competitive inhibitor"}, {"measurement": "IC50", "setting": "[1]; substrate L-DOPA, read-out: concentration for 50% inhibition of tyrosinase activity", "value": 200, "unit": "µM"}]}
